Experimental data published in patent US20190064177A1, “INCORPORATING COMPETITIVE BINDING INFORMATION INTO MOLECULAR ARRAY ANALYSIS TO GENERATE FUNCTION NETWORKS OF INTERACTIONS” (ARIZONA BOARD OF REGENTS ON BEHALF OF ARIZONA STATE …, priority 2017, published 2019).

Tests used:
[1] = system: diaphorase; assay: fluorescently labeled diaphorase binding to peptide array with or without excess FAD; conditions: for 1 microM FAD (array fluorescence of bound diaphorase) / 1 micro no FAD (array fluorescence of bound diaphorase): 1 micromolar labeled diaphorase; for 1 microM FAD (array fluorescence of bound diaphorase) / 10 microM FAD (array fluorescence of bound diaphorase): excess FAD present; for 1 microM FAD (array fluorescence of bound diaphorase) / 1 micro no FAD (array fluorescence of bound diaphorase) / 10 microM FAD (array fluorescence of bound diaphorase) / 10 microM no FAD (array fluorescence of bound diaphorase): 65535 is detector saturation; for 10 microM FAD (array fluorescence of bound diaphorase) / 10 microM no FAD (array fluorescence of bound diaphorase): 10 micromolar labeled diaphorase; for 1 microM noFAD/FAD / 10 microM noFAD/FAD: ratio of binding without FAD to binding with FAD; for 1 microM noFAD/FAD / Meas. ratio: 1 micromolar diaphorase; for 10 microM noFAD/FAD: 10 micromolar diaphorase; for Meas. ratio: ratio without/with FAD calculated from measured binding values
Method in brief: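 Fluorescently labeled diaphorase, at 1 and 10 micromolar, bound to an array of about 126,000 peptides (16 amino acids; C, I, M, T omitted; GSG linker), with or without excess FAD. Fluorescence per feature scanned; 65535 marks detector saturation.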

[2] = target: Diaphorase; assay: peptide array, 1 uM labeled diaphorase, no FAD
[3] = target: Diaphorase; assay: peptide array, 10 uM labeled diaphorase, no FAD
[4] = target: Diaphorase; assay: peptide array, 1 uM labeled diaphorase, with FAD
[5] = target: Diaphorase; assay: peptide array, 10 uM labeled diaphorase, with FAD
[6] = target: Diaphorase; assay: peptide array, 1 uM diaphorase, binding without FAD / with FAD
[7] = target: Diaphorase; assay: peptide array, 10 uM diaphorase, binding without FAD / with FAD

RFKYPLDGGSG [array peptide with C-terminal GSG linker]
1 microM FAD (array fluorescence of bound diaphorase) [1]: 2199.25 | 1 micro no FAD (array fluorescence of bound diaphorase) [1]: 5764.75 | 10 microM FAD (array fluorescence of bound diaphorase) [1]: 30389 | 10 microM no FAD (array fluorescence of bound diaphorase) [1]: 55899.25 | 1 microM noFAD/FAD [1]: 2.621 | 10 microM noFAD/FAD [1]: 1.839 | Meas. ratio [1]: 2.62

KEDKVFGFRFDGS
Meas. ratio [1]: 0.70

YSALFGLQEDGSG [array peptide with C-terminal GSG linker]
1 microM FAD (array fluorescence of bound diaphorase) [1]: 2100.75 | 1 micro no FAD (array fluorescence of bound diaphorase) [1]: 1225.5 | 10 microM FAD (array fluorescence of bound diaphorase) [1]: 16872.25 | 10 microM no FAD (array fluorescence of bound diaphorase) [1]: 8529 | 1 microM noFAD/FAD [1]: 0.5834 | 10 microM noFAD/FAD [1]: 0.5055 | Meas. ratio [1]: 0.58

ARWQQYKFGGSG [array peptide with C-terminal GSG linker]
Meas. ratio [1]: 2.18

RWQYYNQKFGSG [array peptide with C-terminal GSG linker]
1 microM FAD (array fluorescence of bound diaphorase) [1]: 5458 | 1 micro no FAD (array fluorescence of bound diaphorase) [1]: 15697.5 | 10 microM FAD (array fluorescence of bound diaphorase) [1]: 65535 | 10 microM no FAD (array fluorescence of bound diaphorase) [1]: 65535 | 1 microM noFAD/FAD [1]: 2.876 | 10 microM noFAD/FAD [1]: 1 | Meas. ratio [1]: 2.88

RLYPQGYGGSG [array peptide with C-terminal GSG linker]
1 microM FAD (array fluorescence of bound diaphorase) [1]: 4541.5 | 1 micro no FAD (array fluorescence of bound diaphorase) [1]: 11912 | 10 microM FAD (array fluorescence of bound diaphorase) [1]: 61747 | 10 microM no FAD (array fluorescence of bound diaphorase) [1]: 65535 | 1 microM noFAD/FAD [1]: 2.623 | 10 microM noFAD/FAD [1]: 1.061 | Meas. ratio [1]: 2.62

NVSDLSQFYLSGSG [array peptide with C-terminal GSG linker]
1 microM FAD (array fluorescence of bound diaphorase) [1]: 3436.25 | 1 micro no FAD (array fluorescence of bound diaphorase) [1]: 2144.5 | 10 microM FAD (array fluorescence of bound diaphorase) [1]: 27800.25 | 10 microM no FAD (array fluorescence of bound diaphorase) [1]: 6739 | 1 microM noFAD/FAD [1]: 0.6241 | 10 microM noFAD/FAD [1]: 0.2424 | Meas. ratio [1]: 0.62

FQFGKVVSDGSG [array peptide with C-terminal GSG linker]
1 microM FAD (array fluorescence of bound diaphorase) [1]: 2470 | 1 micro no FAD (array fluorescence of bound diaphorase) [1]: 1574.5 | 10 microM FAD (array fluorescence of bound diaphorase) [1]: 20187.75 | 10 microM no FAD (array fluorescence of bound diaphorase) [1]: 12735.5 | 1 microM noFAD/FAD [1]: 0.6374 | 10 microM noFAD/FAD [1]: 0.6309 | Meas. ratio [1]: 0.64

RQYQKHSYAKFSGSG [array peptide with C-terminal GSG linker]
1 microM FAD (array fluorescence of bound diaphorase) [1]: 2460 | 1 micro no FAD (array fluorescence of bound diaphorase) [1]: 6757 | 10 microM FAD (array fluorescence of bound diaphorase) [1]: 27275.5 | 10 microM no FAD (array fluorescence of bound diaphorase) [1]: 57203.5 | 1 microM noFAD/FAD [1]: 2.747 | 10 microM noFAD/FAD [1]: 2.097 | Meas. ratio [1]: 2.75

PRYQNFGGGSG [array peptide with C-terminal GSG linker]
1 microM FAD (array fluorescence of bound diaphorase) [1]: 2458 | 1 micro no FAD (array fluorescence of bound diaphorase) [1]: 6907 | 10 microM FAD (array fluorescence of bound diaphorase) [1]: 36662 | 10 microM no FAD (array fluorescence of bound diaphorase) [1]: 65535 | 1 microM noFAD/FAD [1]: 2.81 | 10 microM noFAD/FAD [1]: 1.788 | Meas. ratio [1]: 2.81

AFYGLELGGSG [array peptide with C-terminal GSG linker]
1 microM FAD (array fluorescence of bound diaphorase) [1]: 4182.5 | 1 micro no FAD (array fluorescence of bound diaphorase) [1]: 2264.25 | 10 microM FAD (array fluorescence of bound diaphorase) [1]: 36729 | 10 microM no FAD (array fluorescence of bound diaphorase) [1]: 16544 | 1 microM noFAD/FAD [1]: 0.5414 | 10 microM noFAD/FAD [1]: 0.4504 | Meas. ratio [1]: 0.54

FGKLYQLYNDGSG [array peptide with C-terminal GSG linker]
1 microM FAD (array fluorescence of bound diaphorase) [1]: 3049 | 1 micro no FAD (array fluorescence of bound diaphorase) [1]: 1911.25 | 10 microM FAD (array fluorescence of bound diaphorase) [1]: 34155 | 10 microM no FAD (array fluorescence of bound diaphorase) [1]: 15703 | 1 microM noFAD/FAD [1]: 0.6268 | 10 microM noFAD/FAD [1]: 0.4598 | Meas. ratio [1]: 0.63

VSWVFGLGHEGGS
Meas. ratio [1]: 0.71

VLAYKLQVDGSG [array peptide with C-terminal GSG linker]
Meas. ratio [1]: 0.68

ELFGALFKGGSG [array peptide with C-terminal GSG linker]
1 microM FAD (array fluorescence of bound diaphorase) [1]: 3403 | 1 micro no FAD (array fluorescence of bound diaphorase) [1]: 2083.5 | 10 microM FAD (array fluorescence of bound diaphorase) [1]: 25315 | 10 microM no FAD (array fluorescence of bound diaphorase) [1]: 12943.5 | 1 microM noFAD/FAD [1]: 0.6123 | 10 microM noFAD/FAD [1]: 0.5113 | Meas. ratio [1]: 0.61

KEAPGPRFGGSG
fluorescence [2]: 1070 | fluorescence [3]: 5610 | fluorescence [4]: 8280 | fluorescence [5]: 5470 | noFAD/FAD [6]: 0.129 | noFAD/FAD [7]: 1.03

YNRNAKSSGGSG
fluorescence [2]: 4010 | fluorescence [3]: 41300 | fluorescence [4]: 1550 | fluorescence [5]: 18600 | noFAD/FAD [6]: 2.6 | noFAD/FAD [7]: 2.23

WRGFKFADGGSG
fluorescence [2]: 5650 | fluorescence [3]: 58900 | fluorescence [4]: 2160 | fluorescence [5]: 31500 | noFAD/FAD [6]: 2.62 | noFAD/FAD [7]: 1.87

RFKYPLDGGSG
fluorescence [2]: 5760 | fluorescence [3]: 55900 | fluorescence [4]: 2200 | fluorescence [5]: 30400 | noFAD/FAD [6]: 2.62 | noFAD/FAD [7]: 1.84

RQYQKHSYAKFSGSG
fluorescence [2]: 6760 | fluorescence [3]: 57200 | fluorescence [4]: 2460 | fluorescence [5]: 27300 | noFAD/FAD [6]: 2.75 | noFAD/FAD [7]: 2.1

RLQYLFKSDGSG
fluorescence [2]: 5780 | fluorescence [3]: 64300 | fluorescence [4]: 1960 | fluorescence [5]: 30600 | noFAD/FAD [6]: 2.94 | noFAD/FAD [7]: 2.1

EDEGLSKFEGGSG
fluorescence [2]: 561 | fluorescence [3]: 1220 | fluorescence [4]: 4170 | fluorescence [5]: 1380 | noFAD/FAD [6]: 0.135 | noFAD/FAD [7]: 0.885

KNRPYNKDLEDGSG
fluorescence [2]: 733 | fluorescence [3]: 2520 | fluorescence [4]: 5150 | fluorescence [5]: 2590 | noFAD/FAD [6]: 0.142 | noFAD/FAD [7]: 0.974

RWKYQKFNGGSG
fluorescence [2]: 10200 | fluorescence [3]: 61300 | fluorescence [4]: 3860 | fluorescence [5]: 46200 | noFAD/FAD [6]: 2.63 | noFAD/FAD [7]: 1.33

YRFQSGLPAKDGSG
fluorescence [2]: 4040 | fluorescence [3]: 50300 | fluorescence [4]: 1490 | fluorescence [5]: 20200 | noFAD/FAD [6]: 2.71 | noFAD/FAD [7]: 2.49
